The source of these data is US12264134B2 (Merck Sharp & Dohme LLC, priority 2018, dated 2025).

The target in this test is IDO1 (Homo sapiens, UniProt P14902). Kind of test: IDO1 Cellular Assay in HeLa Cells Stimulated with IFNγ. The format is cell-based. The note with it: read-out: HeLa Cell Potency, IC50.

Molecules are shown by their SMILES.

Chain of IDO1 (P14902 whole entry): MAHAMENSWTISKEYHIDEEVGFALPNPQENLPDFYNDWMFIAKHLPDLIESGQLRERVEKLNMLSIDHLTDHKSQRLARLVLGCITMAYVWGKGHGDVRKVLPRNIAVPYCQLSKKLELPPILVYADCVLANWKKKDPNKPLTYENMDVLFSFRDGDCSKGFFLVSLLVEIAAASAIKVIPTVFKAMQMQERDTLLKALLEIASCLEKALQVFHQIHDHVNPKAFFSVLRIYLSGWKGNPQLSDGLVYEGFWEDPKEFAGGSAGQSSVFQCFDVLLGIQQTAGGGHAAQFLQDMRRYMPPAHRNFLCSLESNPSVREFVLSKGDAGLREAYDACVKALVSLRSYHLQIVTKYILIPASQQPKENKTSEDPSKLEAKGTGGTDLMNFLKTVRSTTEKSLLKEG

As usually defined, the IC50 is the concentration that inhibits the measured activity by half. As for `COc1ccc(N2CCN(C(=O)Cn3nc(C(=O)N4C[C@@H](C)O[C@@H](C)C4)c4c3CCC4)CC2)c(C)c1` [Example 38, 2-{3-[(2R,6S)-2,6-dimethylmorpholine-4-carbonyl]-5,6-dihydrocyclopenta[c]pyrazol-1(4H)-yl}-1-[4-(4-methoxy-2-methylphenyl)piperazin-1-yl]ethan-1-one], the IC50 turned out to be 124 nM. In the case of `Cc1cccc(N2CCN(C(=O)Cn3nc(C(=O)N4CCC5(CC4)CC(=O)N5)c4c3C[C@H]3C[C@@H]43)CC2)c1C` [Example 219, 7-[(3bR,4aR)-1-{2-[4-(2,3-dimethylphenyl)piperazin-1-yl]-2-oxoethyl}-3b,4,4a,5-tetrahydro-1H-cyclopropa[3,4]cyclopenta[1,2-c]pyrazole-3-carbonyl]-1,7-diazaspiro[3.5]nonan-2-one] it was 0.86 nM; in that of `COc1c(C#N)cccc1N1CCN(C(=O)Cn2nc(C(=O)N3C[C@@H](C)O[C@@H](C)C3)c3c2CCC3)CC1` [Example 63, 3-[4-({3-[(2R,6S)-2,6-dimethylmorpholine-4-4-carbonyl]-5,6-dihydrocyclopenta[c]pyrazol-1(4H)-yl}acetyl)piperazin-1-yl]-2-methoxybenzonitrile], 335 nM. In the case of `Cc1cccc(N2CCN(C(=O)C(C)n3nc(C(=O)N4CCC(O)CC4)c4c3CCC4)CC2)c1C` (single isomer, unassigned) [Example 489, (R or S)-1-(4-(2,3-dimethylphenyl)piperazin-1-yl)-2-(3-(4-hydroxypiperidine-1-carbonyl)-5,6-dihydro-cyclopenta[c]pyrazol-1(4H)-yl)propan-1-one], the IC50 was 393 nM.

Turning to `COc1cc(F)cc(N2CCN(C(=O)Cn3nc(C(=O)N4C[C@@H](C)O[C@@H](C)C4)c4c3CCC4)CC2)c1` [Example 36, 2-{3-[(2R,6S)-2,6-dimethylmorpholine-4-carbonyl]-5,6-dihydrocyclopenta[c]pyrazol-1(4H)-yl}-1-[4-(3-fluoro-5-methoxyphenyl)piperazin-1-yl]ethan-1-one], the IC50 came out at 55.5 nM. For the compound `Cc1cccc(N2CCN(C(=O)Cn3nc(C(=O)N4C[C@H](O)C[C@H]4C)c4c3C[C@H]3C[C@@H]43)CC2)c1C` [Example 292, 1-[4-(2,3-dimethylphenyl)piperazin-1-yl]-2-{(3bR,4aR)-3-[(2R,4R)-4-hydroxy-2-methylpyrrolidine-1-carbonyl]-3b,4,4a,5-tetrahydro-1H-cyclopropa[3,4]cyclopenta[1,2-c]pyrazol-1-yl}ethan-1-one], the IC50 stood at 3.7 nM.

`COc1cc(F)c(N2CCN(C(=O)Cn3nc(C(=O)N4C[C@@H](C)O[C@@H](C)C4)c4c3CCC4)CC2)cc1F` [Example 62, 1-[4-(2,5-difluoro-4-methoxyphenyl)piperazin-1-yl]-2-{3-[(2R,6S)-2,6-dimethylmorpholine-4-carbonyl]-5,6-dihydrocyclopenta[c]pyrazol-1(4H)-yl}ethan-1-one]: the 50% inhibitory concentration (IC50) amounted to 146 nM. As to `Cc1cccc(N2CCN(C(=O)Cn3nc(C(=O)N4CCC(O)(CN(C)C)CC4)c4c3CCC4)CC2)c1C` [Example 113, 2-[3-{4-[(dimethylamino)methyl]-4-hydroxypiperidine-1-carbonyl}-5,6-dihydrocyclopenta[c]pyrazol-1(4H)-yl]-1-[4-(2,3-dimethylphenyl)piperazin-1-yl]ethan-1-one], the IC50 is 372 nM. Take `O=C(Cn1nc(C(=O)N2CC[C@H](O)[C@H](F)C2)c2c1CCC2)N1CCN(C2CCCc3ccccc32)CC1` (stereo partly drawn) [Example 425, 2-(3-((3R,4S)-3-fluoro-4-hydroxypiperidine-1-carbonyl)-5,6-dihydrocyclopenta[c]pyrazol-1(4H)-yl)-1-(4-(1,2,3,4-tetrahydronaphthalen-1-yl)piperazin-1-yl)ethanone]: the half-inhibitory concentration (IC50) stood at 565 nM. The result for `CN[C@H]1CCCN(C(=O)c2nn(CC(=O)N3CCN(c4cccc(C)c4C)CC3)c3c2[C@@H]2C[C@@H]2C3)C1` [Example 241, 1-[4-(2,3-dimethylphenyl)piperazin-1-yl]-2-{(3bR,4aR)-3-[(3S)-3-(methylamino)piperidine-1-carbonyl]-3b,4,4a,5-tetrahydro-1H-cyclopropa[3,4]cyclopenta[1,2-c]pyrazol-1-yl}ethan-1-one] reads 164 nM; that for `Cc1cccc(N2CCN(C(=O)Cn3nc(C(=O)N4CCO[C@H](CO)C4)c4c3CCCC4)CC2)c1C` [Example 474, (S)-1-(4-(2,3-dimethylphenyl)piperazin-1-yl)-2-(3-(2-(hydroxymethyl)morpholine-4-carbonyl)-4,5,6,7-tetrahydro-1H-indazol-1-yl)ethanone], 4.21 nM. As for `Cc1cccc(N2CCN(C(=O)Cn3nc(C(=O)N4CC[C@H](O)[C@H](F)C4)c4c3CCC4C(F)F)CC2)c1C` (mixture of isomers) [Example 19, 2-[rac-4-(difluoromethyl)-3-[(3R,4S)-3-fluoro-4-hydroxy-piperidine-1-carbonyl]-5,6-dihydro-4H-cyclopenta[c]pyrazol-1-yl]-1-[4-(2,3-dimethylphenyl)piperazin-1-yl]ethanone], the IC50 turned out to be 113 nM. As to `Cc1cccc(N2CCN(C(=O)Cn3nc(C(=O)N4CCC(O)CC4)c4c3CCC4C(F)F)CC2)c1C` (racemic) [Example 18, 2-[rac-4-(difluoromethyl)-3-(4-hydroxypiperidine-1-carbonyl)-5,6-dihydro-4H-cyclopenta[c]pyrazol-1-yl]-1-[4-(2,3-dimethylphenyl)piperazin-1-yl]ethanone], the IC50 was 92.4 nM. Consider `Cc1cccc(N2CCN(C(=O)Cn3nc(C(=O)N4CCN(C(C)C)CC4)c4c3CCC4)CC2)c1C` [Example 159, 1-[4-(2,3-dimethylphenyl)piperazin-1-yl]-2-{3-[4-(propan-2-yl)piperazine-1-carbonyl]-5,6-dihydrocyclopenta[c]pyrazol-1(4H)-yl}ethan-1-one], for which the IC50 turned out to be 25.2 nM.

As to `Cc1cccc(N2CCN(C(=O)Cn3nc(C(=O)N4CCC(C)(CN)CC4)c4c3CCC4)CC2)c1C` [Example 179, 2-{3-[4-(aminomethyl)-4-methylpiperidine-1-carbonyl]-5,6-dihydrocyclopenta[c]pyrazol-1(4H)-yl}-1-[4-(2,3-dimethylphenyl)piperazin-1-yl]ethan-1-one], the IC50 amounted to 82.8 nM. For `Cc1cccc(N2CCN(C(=O)Cn3nc(C(=O)N4CCN(CCO)CC4)c4c3CCC4)CC2)c1C` [Example 162, 1-[4-(2,3-dimethylphenyl)piperazin-1-yl]-2-{3-[4-(2-hydroxyethyl)piperazine-1-carbonyl]-5,6-dihydrocyclopenta[c]pyrazol-1(4H)-yl}ethan-1-one], the IC50 stood at 10.5 nM. As for `Cc1c(Cl)cccc1N1CCN(C(=O)Cn2nc(C(=O)N3CCC(O)(CF)CC3)c3c2CCCC3)CC1` [Example 407, 1-(4-(3-chloro-2-methylphenyl)piperazin-1-yl)-2-(3-(4-(fluoromethyl)-4-hydroxypiperidine-1-carbonyl)-4,5,6,7-tetrahydro-1H-indazol-1-yl)ethanone], the IC50 was determined as 1.09 nM.

Regarding `Cc1cccc(N2CCN(C(=O)Cn3nc(C(=O)N4CC5(CC(O)C5)C4)c4c3CCC4)CC2)c1C` [Example 305, 1-[4-(2,3-dimethylphenyl)piperazin-1-yl]-2-[3-(6-hydroxy-2-azaspiro[3.3]heptane-2-carbonyl)-5,6-dihydrocyclopenta[c]pyrazol-1(4H)-yl]ethan-1-one], the IC50 came out at 48 nM. In the case of `Cc1cccc(N2CCN(C(=O)Cn3nc(C(=O)N4CC[C@@H](O)C[C@@H]4C)c4c3C[C@H]3C[C@@H]43)CC2)c1C` [Example 261, 1-[4-(2,3-dimethylphenyl)piperazin-1-yl]-2-{(3bR,4aR)-3-[(2S,4R)-4-hydroxy-2-methylpiperidine-1-carbonyl]-3b,4,4a,5-tetrahydro-1H-cyclopropa[3,4]cyclopenta[1,2-c]pyrazol-1-yl}ethan-1-one], the IC50 was determined as 0.95 nM. As for `Cc1cccc(N2CCN(C(=O)Cn3nc(C(=O)N4CC[C@@H](C#N)C4)c4c3C[C@H]3C[C@@H]43)CC2)c1C` [Example 223, (3R)-1-[(3bR,4aR)-1-{2-[4-(2,3-dimethylphenyl)piperazin-1-yl]-2-oxoethyl}-3b,4,4a,5-tetrahydro-1H-cyclopropa[3,4]cyclopenta[1,2-c]pyrazole-3-carbonyl] pyrrolidine-3-carbonitrile], the half-inhibitory concentration (IC50) stood at 1.49 nM. As to `Cc1cccc(N2CCN(C(=O)Cn3nc(C(=O)N4CCC(F)(CO)CC4)c4c3CCC4)CC2)c1C` [Example 102, 1-[4-(2,3-dimethylphenyl)piperazin-1-yl]-2-{3-[4-fluoro-4-(hydroxymethyl)piperidine-1-carbonyl]-5,6-dihydrocyclopenta[c]pyrazol-1(4H)-yl}ethan-1-one], the IC50 was found to be 4.38 nM. Turning to `Cc1cccc(N2CCN(C(=O)Cn3nc(C(=O)N4CCCCC45CC5)c4c3C[C@H]3C[C@@H]43)CC2)c1C` [Example 215, 2-[(3bR,4aSR)-3-(4-azaspiro[2.5]octane-4-carbonyl)-3b,4,4a,5-tetrahydro-1H-cyclopropa[3,4]cyclopenta[1,2-c]pyrazol-1-yl]-1-[4-(2,3-dimethylphenyl)piperazin-1-yl]ethan-1-one], the IC50 was found to be 1.38 nM. Regarding `Cc1cccc(N2CCN(C(=O)Cn3nc(C(=O)N4CC[C@H](O)[C@H](C)C4)c4c3CCC4)CC2)c1C` [Example 99, 1-[4-(2,3-dimethylphenyl)piperazin-1-yl]-2-{3-[(3R,4S)-4-hydroxy-3-methylpiperidine-1-carbonyl]-5,6-dihydrocyclopenta[c]pyrazol-1(4H)-yl}ethan-1-one], the IC50 was determined as 3.19 nM. In the case of `O=C(Cn1nc(C(=O)N2CCC(O)CC2)c2c1CCC2)N1CCN(C2CCCc3ccccc32)CC1` (single isomer, unassigned) [Example 430] it was 184 nM; in that of `COc1cccc(N2CCN(C(=O)Cn3nc(C(=O)N4C[C@@H](C)O[C@@H](C)C4)c4c3CCC4)CC2)c1F` [Example 39, 2-{3-[(2R,6S)-2,6-dimethylmorpholine-4-carbonyl]-5,6-dihydrocyclopenta[c]pyrazol-1(4H)-yl}-1-[4-(2-fluoro-3-methoxyphenyl)piperazin-1-yl]ethan-1-one], 374 nM; in that of `Cc1cccc(N2CCN(C(=O)Cn3nc(C(=O)N4[C@@H](C)COC[C@@H]4C)c4c3CCC4)CC2)c1C` [Example 115, 2-{3-[(3S,5S)-3,5-dimethylmorpholine-4-carbonyl]-5,6-dihydrocyclopenta[c]pyrazol-1(4H)-yl}-1-[4-(2,3-dimethylphenyl)piperazin-1-yl]ethan-1-one], 176 nM.
